Earlier results as cited in patent publication EP0490031B1, “Method for protecting crops while eliminating crop injury due to pesticide interactions” (priority 1990, dated 1992).

Legend:
rabbits = conditions: technical grade

SMILES | acute percutaneous LD50 (rabbits) | acute percutaneous LD50 (rats)
CCOP(=S)(OCC)SCSC(C)(C)C [Technical grade terbufos, O,O-diethyl S-{[(1,1-dimethylethyl)thio]methyl}phosphorodithioate] | 1.0 mg/kg of animal body weight | 
CCOP(=S)(OCC)SCSCC [Phorate] |  | 2.5-6.2 mg/kg of animal body weight
